Test [1] has as its target T1, HCV NS3/4A protease complex (H77 strain) (Hepatitis C virus genotype 1a, UniProt P27958, C1454S/C1711G).
T1 construct: DNA encoding the recombinant HCV NS3/4A protease complex (amino acids 1027 to 1711) for these strains; inferred from pET21b vector and Ni-NTA purification; made in house; host or cells: Escherichia coli BL21 (DE3), pET21b
Description: FRET peptide assay to monitor HCV NS3/4A proteolytic activity, H77 strain. The class given is biochemical. An excerpt:
HCV NS3 protease complexes, derived from the BMS strain, H77 strain or J4L6S strain, were generated, as described below. These purified recombinant proteins were generated for use in a homogeneous assay (see below) to provide an indication of how effective compounds of the present disclosure would be in inhibiting HCV NS3 proteolytic activity.
The H77 and J4L6S strains were used for production of recombinant NS3/4A protease complexes. DNA encoding the recombinant HCV NS3/4A protease complex (amino acids 1027 to 1711) for these strains was manipulated as described by P. Gallinari et al. (see Gallinari P, Paolini C, Brennan D, Nardi C, Steinkuhler C, De Francesco R. Biochemistry. 38(17):5620-32, (1999)). Briefly, a three-lysine solubilizing tail was added at the 3′-end of the NS4A coding region. The cysteine in the P1 position of the NS4A-NS4B cleavage site (amino acid 1711) was changed to a glycine to avoid the proteolytic cleavage of the lysine tag. Furthermore, a cysteine to serine mutation was introduced by PCR at amino acid position 1454 to prevent the autolytic cleavage in the NS3 helicase domain. […]

The target of test [2] is T2, human neutrophil elastase (HNE) (Homo sapiens, UniProt P08246).
T2 construct: purchased Sigma or EMDbiosciences
T2 sequence (P08246 30-267): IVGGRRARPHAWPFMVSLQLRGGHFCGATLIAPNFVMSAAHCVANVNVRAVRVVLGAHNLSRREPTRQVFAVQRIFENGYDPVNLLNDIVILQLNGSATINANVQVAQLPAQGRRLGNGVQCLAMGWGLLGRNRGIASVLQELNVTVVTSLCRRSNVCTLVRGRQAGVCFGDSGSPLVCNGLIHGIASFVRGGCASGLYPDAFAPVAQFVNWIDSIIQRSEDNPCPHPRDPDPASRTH
Description: Specificity assay, human neutrophil elastase. The class given is biochemical. The conditions noted are these: read-out: HLE activity in the specificity assays (IC50). On the procedure:
The specificities of compounds of the present disclosure were determined against a variety of serine proteases: human neutrophil elastase (HNE), porcine pancreatic elastase (PPE) and human pancreatic chymotrypsin and one cysteine protease: human liver cathepsin B. In all cases, a 96-well plate format protocol using colorimetric p-nitroaniline (pNA) substrate or fluorometric Amino-Methyl-Coumarin (AMC) substrate, specific for each enzyme was used as described previously (PCT Patent Application No. WO 00/09543) with some modifications. All enzymes were purchased from Sigma or EMDbiosciences while the substrates were from Bachem.
Each pNA assay included a 2 hours enzyme-inhibitor pre-incubation at room temperature followed by addition of substrate and hydrolysis to ˜15% conversion as measured on a Spectramax Pro microplate reader. The cathepsin B assay was initiated by adding substrate to a 10 min enzyme-inhibitor pre-incubation at room temperature, and the assay plate measured immediately using the Cytofluor Series 4000. Compound concentrations varied from 100 to 0.4 μM depending on their potency. […]
The percentage of inhibition was calculated using the formula: [1−((UVinh−UVblank)/(UVctl−UVblank))]×100 […]

Molecules are shown by their SMILES. Where only a bound is given, the exact number is not on record here.

T1 sequence (P27958 1027-1711 C1454S/C1711G, one chain of several): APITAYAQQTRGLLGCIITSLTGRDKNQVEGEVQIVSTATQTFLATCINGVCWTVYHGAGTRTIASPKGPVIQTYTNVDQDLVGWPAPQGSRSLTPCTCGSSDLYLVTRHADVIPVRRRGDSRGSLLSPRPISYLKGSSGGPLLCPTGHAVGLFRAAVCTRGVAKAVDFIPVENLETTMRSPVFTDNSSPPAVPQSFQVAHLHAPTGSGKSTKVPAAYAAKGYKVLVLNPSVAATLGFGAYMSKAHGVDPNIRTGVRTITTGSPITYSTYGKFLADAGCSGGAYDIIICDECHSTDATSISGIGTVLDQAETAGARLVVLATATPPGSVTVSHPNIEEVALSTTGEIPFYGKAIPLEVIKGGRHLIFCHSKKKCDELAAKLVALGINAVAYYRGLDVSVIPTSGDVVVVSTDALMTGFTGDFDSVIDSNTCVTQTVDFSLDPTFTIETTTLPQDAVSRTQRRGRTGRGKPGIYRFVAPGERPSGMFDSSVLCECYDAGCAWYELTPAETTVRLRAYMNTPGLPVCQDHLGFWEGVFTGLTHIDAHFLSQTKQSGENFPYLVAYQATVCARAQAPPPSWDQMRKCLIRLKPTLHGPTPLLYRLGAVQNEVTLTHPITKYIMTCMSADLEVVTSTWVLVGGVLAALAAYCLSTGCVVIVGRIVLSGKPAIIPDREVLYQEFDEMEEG

As for `C=C[C@@H]1C[C@]1(NC(=O)[C@@H]1C[C@@H](OC(=O)N2Cc3cccc(F)c3C2)CN1C(=O)[C@@H](OC(=O)NC(C)(C)C)C(C)(C)C)C(=O)NS(=O)(=O)C1CC1` [Example 56Compound 56], the IC50 in test [1] is 17 nM; in test [2] it was greater than 100000 nM.

The values above are taken from patent US7323447B2, “Hepatitis C virus inhibitors” (Bristol-Myers Squibb Company, priority 2005, dated 2008).
